In patent US20240101535A1, “DIHYDROISOQUINOLINONE DERIVATIVE AND APPLICATION THEREOF” (ETERN BIOPHARMA (SHANGHAI) CO., LTD., priority 2020, published 2024):
Counter-ions that a name gives are not always drawn. Like-named read-outs stand apart in the source and are kept apart here.

Experiments:
[1] = target: WDR5 protein (22-334aa) with MLL1 polypeptide (3672-3773aa) (Homo sapiens, UniProt P61964); assay: WDR5-MLL PPI inhibitory activity test (HTRF); format: binding; conditions: His-tagged WDR5 and biotin-tagged MLL1 polypeptide
Source text: Test Example 1: WDR5-MLL PPI Inhibitory Activity Test
Effect of the compounds on WDR5 (WD Repeat Domain 5) and MLL1 (mixed-lineage leukemia 1) peptides at molecular level.
The effect of the compound on the interaction of WDR5 protein (22-334aa) with MLL1 polypeptide (3672-3773aa) was detected by HTRF (Homogeneous Time-Resolved Fluorescence) technology. When the N-terminal His-tagged WDR5 recognized by the Anti-6His-Eu cryptate donor interacts with the biotin-tagged MLL1 polypeptide recognized by the streptavidin-APC receptor, the donor and acceptor are pulled close enough to produce fluorescence resonance energy transfer (FRET). […] Therefore, the decrease in FRET signal can reflect the compound's inhibition on the interaction of WDR5 with MLL1 polypeptide.
The compound to be tested was diluted 3-fold with DMSO. […] Then the compound was diluted with reaction buffer (25 mM HEPES pH=7.5, 100 mM NaCl, 0.05% Tween 20) to control the final concentration of DMSO at 0.5%. In a 384-well plate, 1 μL of compound and 3 μL of 42 nM WDR5 protein were added, centrifuged at 1000 rpm for 1 min, incubated at room temperature for 60 min, followed by adding 3 μL of 333 nM MLL1 polypeptide with incubation at room temperature for 10 min, and followed by adding 3 μL of a mixed liquid of Anti-6His-Eu cryptate and streptavidin-APC with centrifugation at 1000 rpm for 1 mi and incubation at room temperature protected from light for 60 min, using a multifunction microplate reader (EnVision®2105) to read the signal. The following controls were set up per plate: control group (1 μL with 5% DMSO reaction buffer, 3 μL of 42 nM WDR5, 3 μL of MLL1 polypeptide, 3 μL of Anti-6His-Eu cryptate and streptavidin-APC). Blank group (1 μL reaction buffer with 5% DMSO, 3 μL reaction buffer, 3 μL MLL1 polypeptide, 3 μL Anti-6His-Eu cryptate and streptavidin-APC). The test data was calculated according to the signal ratio of two beams of fluorescence at different wavelengths: (665 nm signal/620 nm signal)*10000. […] The IC50 value was calculated using XLfit software.

MV4-11 cells = assay: MV4-11 cell proliferation inhibition experiment (CellTiter-Glo); format: cell-based; conditions: 6 days, read-out: cell proliferation inhibitory activity
Method: Test Example 2: MV4-11 Cell (ATCC: CRL-9591) Proliferation Inhibition Experiment
ATP in living cells was quantitatively detected by CellTiter-Glo (Promega-G7573) Luminescence Cell Viability Assay Kit to determine the effect of the compounds to be tested on cell proliferation. • Step 1: MV4-11 cells were seeded in 96-well plates (Greiner-655098) at a density of 1,500 cells per well with a volume of 140 μL per well; Cell culture medium components included RPM11640 (Gibco-A10491-01)+10% FBS (Gibco-10099-141C)+1% Penicillin-Streptomycin (5,000 U/mL, Gibco-15070-063). • Step 2: On the day of cell seeding, the cells were treated with the compound to be tested. The compound to be tested was diluted with a 3-fold gradient, and a total of 9 concentration gradients were set. DMSO (Sigma, D2650) with 0.5% final concentration or a DMSO solution containing the compound to be tested was added per well with 2 or 3 replicate wells at each concentration point. The plates were incubated at 37° C. in a 5% CO2 incubator (Thermo Scientific Steri-Cycle 371) for 6 days. • Step 3: The cell viability in the control and treatment groups was detected with CellTiter-Glo Luminescent Cell Viability Assay Kit. 50 μL of CellTiter-Glo was added per well, mixed well, and incubated for 15 min at room temperature protected from light. According to the kit instructions, the chemiluminescence signal was read using a multifunctional microplate reader (EnVision, PerkinElmer).
The inhibition percentage (%) of the compound at each concentration point was calculated by the following formula:
Inhibition Percentage (%)=(1−signal value of the group treated with the compound/signal value of the group treated with DMSO)*100.
The value of cell proliferation semi-inhibitory concentration IC50 was calculated using GraphPad Prism software, and the results are shown in Table 2.

Row | Compound | IC50 [1] [nM] | IC50 (MV4-11 cells; Homo sapiens, 144 h) [nM] | IC50 (MV4-11 cells) [nM]
1 | CCOc1cc([C@H](C)N2CC3(CCC3)c3c(CN(C)C)cc(Cn4ccnc4NC)cc3C2=O)ncc1F [Compound 18, (S)-5′-((dimethylamino)methyl)-2′-(1-(4-ethoxy-5-fluoropyridine-2-yl)ethyl)-7′-((2-(methylamino)-1H-imidazol-1-yl)methyl)-2′,3′-dihydro-1′H-spiro[cyclobutan-1,4′-isoquinoline]-1′-one] | < 20 | 50 to 200 | 
2 | CCOc1cc([C@H](C)N2CC3(CC3)c3c(CN4CCOCC4)cc(Cn4ccnc4NC)cc3C2=O)ncc1F [Compound 8] | < 20 | 50 to 200 | 
3 | (S)-4-ethoxy-6-(1-(7′-((2-(methylamino)-1H-imidazol-1-yl)methyl)-5′-(morpholinomethyl)-1′-one-1′H-spiro[cyclopropan-1,4′-isoquinoline]-2′(3′H)-yl)ethyl)nicotinonitrile [Compound 60] | < 20 |  | < 50
4 | CCOc1cc([C@H](C)N2C[C@@]3(CC3(F)F)c3c(CN4CCN(C)CC4)cc(Cn4ccnc4NC)cc3C2=O)ncc1F (single isomer, unassigned) [Compound 92, 2′-(-1-(4-ethoxy-5-fluoropyridine-2-yl)ethyl)-2,2-difluoro-7′-((2-(methylamino)-1H-imidazol-1-yl)methyl)-5′-((4-methylpiperazin-1-yl)methyl)-2′,3′-dihydro-1′H-spiro[cyclopropan-1,4′-isoquinoline]-1′-one formate salt] | < 20 | 50 to 200 | 
5 | CCOc1cc([C@H](C)N2CC3(CCC3)c3c(CN4CCN(S(C)(=O)=O)CC4)cc(Cn4ccnc4NC)cc3C2=O)ncc1C#N [Compound 80, (S)-4-ethoxy-6-(1-(7′-((2-(methylamino)-1H-imidazol-1-yl)methyl)-5′-((4-(methylsulfonyl)piperazin-1-yl)methyl)-1′-one-1′H-spiro[cyclobutan-1,4′-isoquinoline]-2′(3′H)-yl)ethyl)nicotinonitrile] | < 20 | < 50 | 
6 | CCOc1cc([C@H](C)N2CC3(CCC3)c3c(CN4CCN(S(C)(=O)=O)CC4)cc(Cn4ccnc4NC)cc3C2=O)ncc1F [Compound 78, (S)-2′-(1-(4-ethoxy-5-fluoropyridine-2-yl)ethyl)-7′-((2-(methylamino)-1H-imidazol-1-yl)methyl)-5′-((4-(methylsulfonyl)piperazin-1-yl)methyl)-2′,3′-dihydro-1′H-spiro[cyclobutan-1,4′-isoquinoline]-1′-one] | < 20 | < 50 | 
7 | CNc1nccn1Cc1cc(CN(C)C)c2c(c1)C(=O)N([C@@H](C)c1cc(OC)c(C#N)cn1)CC21CC1 [Compound 2] | < 20 | 50 to 200 | 
8 | CCOc1cc(CN2CC3(CC3)c3c(CN4CCN(C)CC4)cc(Cn4ccnc4NC)cc3C2=O)nn1C [Compound 66, 2′-((5-ethoxy-1-methyl-1H-pyrazole-3-yl)methyl)-7′-((2-(methylamino)-1H-imidazol-1-yl)methyl)-5′-((4-methylpiperazin-1-yl)methyl)-2′,3′-dihydro-1′H-spiro[cyclopropan-1,4′-isoquinoline]-1′-one] | < 20 | < 50 | 
9 | CCOc1cc([C@H](C)N2CC3(CC3)c3c(CN4CC(F)(F)C4)cc(Cn4ccnc4NC)cc3C2=O)ncc1F [Compound 68, (S)-5′-((3,3-difluoroazetidinyl-1-yl)methyl)-2′-(1-(4-ethoxy-5-fluoropyridine-2-yl)ethyl)-7′-((2-(methylamino)-1H-imidazol-1-yl)methyl)-2′,3′-dihydro-1′H-spiro[cyclopropan-1,4′-isoquinoline]-1′-one] | < 20 | 50 to 200 | 
10 | CCOc1cc([C@H](C)N2CC3(CCC3)c3c(CN4CCOCC4)cc(Cn4ccnc4NC)cc3C2=O)ncc1C#N [Compound 72, (S)-4-ethoxy-6-(1-(7′-((2-(methylamino)-1H-imidazol-1-yl)methyl)-5′-(morpholinylmethyl)-1′-one-1′H-spiro[cyclobutyl-1,4′-isoquinoline]-2′(3′H)-yl)ethyl)nicotinonitrile] | < 20 | < 50 | 
11 | CCOc1cc([C@H](C)N2CC3(CCCC3)c3c(CN(C)C)cc(Cn4ccnc4NC)cc3C2=O)ncc1F [Compound 19, (S)-5′-((dimethylamino)methyl)-2′-(1-(4-ethoxy-5-fluoropyridine-2-yl)ethyl)-7′-((2-(methylamino)-1H-imidazol-1-yl)methyl)-2′,3′-dihydro-1′H-spiro[cyclopentan-1,4′-isoquinoline]-1′-one] | < 20 | < 50 | 
12 | CCOc1cc([C@H](C)N2CC3(CCC3)c3c(CN4CC(F)(F)C4)cc(Cn4ccnc4NC)cc3C2=O)ncc1C#N [Compound 79, (S)-6-(1-(5′-((3,3-difluoroazetidinyl-1-yl)methyl)-7′-((2-(methylamino)-1H-imidazol-1-yl)methyl)-1′-one-1′H-spiro[cyclobutan-1,4′-isoquinoline]-2′(3′H)-yl)ethyl)-4-ethoxynicotinonitrile] | < 20 | < 50 | 
13 | CCOc1cc([C@H](C)N2CC3(CC3)c3c(CN4CCN(CC)CC4)cc(Cn4ccnc4NC)cc3C2=O)ncc1F [Compound 57] | < 20 | < 50 | 
14 | CCOc1cc([C@@H](C)N2C[C@]3(CC3(F)F)c3c(CN(C)C)cc(Cn4ccnc4NC)cc3C2=O)ncc1F (stereo in doubt) [Compound 96, (S)-5′-((dimethylamino)methyl)-2′-((R)-1-(4-ethoxy-5-fluoropyridine-2-yl)ethyl)-2,2-difluoro-7′-((2-(methylamino)-1H imidazol-1-yl)methyl)-2′, 3′-dihydro-1′H-spiro[cyclopropan-1,4′-isoquinoline]-1′-one] | < 20 | < 50 | 
15 | CNc1nccn1Cc1cc(CN2CC(F)(F)C2)c2c(c1)C(=O)N([C@@H](C)c1cc(OC)c(C#N)cn1)CC21CC1 [Compound 61] | < 20 | 50 to 200 | 
16 | CCOc1cc([C@H](C)N2CC3(CC3(F)F)c3c(CN(C)C)cc(Cn4ccnc4NC)cc3C2=O)ncc1C#N (stereo in doubt) [Compound 95, 6-(-1-(5′-((dimethylamino)methyl)-2,2-difluoro-7′-((2-(methylamino)-1H-imidazol-1-yl)methyl)-1′-one-1′H-spiro[cyclopropan-1,4′-isoquinoline]-2′(3′H)-yl)ethyl)-4-ethoxynicotinonitrileformate salt] | < 20 | < 50 | 
17 | CNc1nccn1Cc1cc(CN(C)C)c2c(c1)C(=O)N([C@@H](C)c1cc(OC(F)F)c(F)cn1)CC21CC1 [Compound 55] | < 20 | 50 to 200 | 
18 | CCOc1cc([C@H](C)N2CC3(CC3)c3c(CN(C)C)cc(Cn4ccnc4NC)cc3C2=O)ncc1C#N [Compound 3] | < 20 | < 50 | 
19 | [2H]C(C)(c1cc(OCC)c(C#N)cn1)N1CC2(CCC2)c2c(CN(C)C)cc(Cn3ccnc3NC)cc2C1=O (stereo not shown) [Compound 101] | < 20 | < 50 | 
20 | CCOc1cc([C@H](C)N2CC3(CCC3)c3c(CN4CCC(OC)CC4)cc(Cn4ccnc4NC)cc3C2=O)ncc1C#N [Compound 81] | < 20 | < 50 | 
